Data as given in PubChem BioAssay (NCI).
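Results reflect a 48-hour exposure of cells in 96-well plates to compound at five concentrations. The concentration for 50% growth inhibition is given as GI50. At the TGI there is no net growth.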

Columns and labels:
Test in all cases: NCI anticancer screen, dose series, 48 h
786-0 renal = tested on: 786-0 renal
A498 renal = tested on: A498 renal
A549 NSCLC = tested on: A549 NSCLC
ACHN renal = tested on: ACHN renal
BT-549 breast = tested on: BT-549 breast
CAKI-1 renal = tested on: CAKI-1 renal
CCRF-CEM leukemia = tested on: CCRF-CEM leukemia
COLO 205 colon = tested on: COLO 205 colon
DU-145 prostate = tested on: DU-145 prostate
EKVX NSCLC = tested on: EKVX NSCLC
HCC-2998 colon = tested on: HCC-2998 colon
HCT-116 colon = tested on: HCT-116 colon
HCT-15 colon = tested on: HCT-15 colon
HL-60(TB) leukemia = tested on: HL-60(TB) leukemia
HOP-62 NSCLC = tested on: HOP-62 NSCLC
HOP-92 NSCLC = tested on: HOP-92 NSCLC
HS 578T breast = tested on: HS 578T breast
HT29 colon = tested on: HT29 colon
IGROV1 ovarian = tested on: IGROV1 ovarian
K-562 leukemia = tested on: K-562 leukemia
KM12 colon = tested on: KM12 colon
LOX IMVI melanoma = tested on: LOX IMVI melanoma
M14 melanoma = tested on: M14 melanoma
MCF7 breast = tested on: MCF7 breast
MDA-MB-231 breast = tested on: MDA-MB-231 breast
MDA-MB-435 = tested on: MDA-MB-435
MOLT-4 leukemia = tested on: MOLT-4 leukemia
NCI-H226 lung = tested on: NCI-H226 lung
NCI-H23 lung = tested on: NCI-H23 lung
NCI-H460 lung = tested on: NCI-H460 lung
NCI-H522 lung = tested on: NCI-H522 lung
NCI/ADR-RES ovarian = tested on: NCI/ADR-RES ovarian
OVCAR-3 ovarian = tested on: OVCAR-3 ovarian
OVCAR-4 ovarian = tested on: OVCAR-4 ovarian
OVCAR-5 ovarian = tested on: OVCAR-5 ovarian
OVCAR-8 ovarian = tested on: OVCAR-8 ovarian
PC-3 prostate = tested on: PC-3 prostate
RPMI-8226 leukemia = tested on: RPMI-8226 leukemia
RXF 393 renal = tested on: RXF 393 renal
SF-268 CNS = tested on: SF-268 CNS
SF-295 CNS = tested on: SF-295 CNS
SF-539 CNS = tested on: SF-539 CNS
SK-MEL-2 melanoma = tested on: SK-MEL-2 melanoma
SK-MEL-28 melanoma = tested on: SK-MEL-28 melanoma
SK-MEL-5 melanoma = tested on: SK-MEL-5 melanoma
SK-OV-3 ovarian = tested on: SK-OV-3 ovarian
SN12C renal = tested on: SN12C renal
SNB-19 CNS = tested on: SNB-19 CNS
SNB-75 CNS = tested on: SNB-75 CNS
SR leukemia = tested on: SR leukemia
SW-620 colon = tested on: SW-620 colon
T-47D breast = tested on: T-47D breast
TK-10 renal = tested on: TK-10 renal
U251 CNS = tested on: U251 CNS
UACC-257 melanoma = tested on: UACC-257 melanoma
UACC-62 melanoma = tested on: UACC-62 melanoma
UO-31 renal = tested on: UO-31 renal

## C=C1CC[C@@H]2[C@](C)(COC(C)=O)[C@H](OC(C)=O)CC[C@@]2(C)[C@@H]1CC(Nc1ccc(S(=O)(=O)Nc2nccs2)cc1)C1=CCOC1=O (some centres undefined)
786-0 renal
  GI50: 2.55 µM
  TGI: 6.74 µM
A498 renal
  GI50: 18.2 µM
  TGI: 32.6 µM
A549 NSCLC
  GI50: 3.67 µM
  TGI: 11.2 µM
ACHN renal
  GI50: 5.99 µM
  TGI: 18.9 µM
BT-549 breast
  GI50: 2.43 µM
  TGI: 6.5 µM
CAKI-1 renal
  GI50: 3.8 µM
  TGI: 14.2 µM
CCRF-CEM leukemia
  GI50: 2.28 µM
  TGI: 6.76 µM
COLO 205 colon
  GI50: 3.14 µM
  TGI: 10.5 µM
DU-145 prostate
  GI50: 4.47 µM
  TGI: 15.8 µM
EKVX NSCLC
  GI50: 14 µM
  TGI: 27 µM
HCC-2998 colon
  GI50: 7.78 µM
  TGI: 21.3 µM
HCT-116 colon
  GI50: 1.75 µM
  TGI: 3.75 µM
HCT-15 colon
  GI50: 1.73 µM
  TGI: 4.12 µM
HL-60(TB) leukemia
  GI50: 3.01 µM
  TGI: 13.3 µM
HOP-62 NSCLC
  GI50: 13.8 µM
  TGI: 27.5 µM
HOP-92 NSCLC
  GI50: 12.4 µM
  TGI: 25.3 µM
HS 578T breast
  GI50: 10.8 µM
  TGI: 60.4 µM
HT29 colon
  GI50: 2.17 µM
  TGI: 4.7 µM
IGROV1 ovarian
  GI50: 4.54 µM
  TGI: 17.1 µM
K-562 leukemia
  GI50: 3.6 µM
  TGI: 29 µM
KM12 colon
  GI50: 7.58 µM
  TGI: 21.7 µM
LOX IMVI melanoma
  GI50: 1.59 µM
  TGI: 3.31 µM
M14 melanoma
  GI50: 2.83 µM
  TGI: 10.5 µM
MCF7 breast
  GI50: 2.59 µM
  TGI: 13.6 µM
MDA-MB-231 breast
  GI50: 3.31 µM
  TGI: 8.25 µM
MDA-MB-435
  GI50: 3.29 µM
  TGI: 12.7 µM
MOLT-4 leukemia
  GI50: 3.68 µM
  TGI: 73.2 µM
NCI-H226 lung
  GI50: 2.36 µM
  TGI: 5.37 µM
NCI-H23 lung
  GI50: 10 µM
  TGI: 24.8 µM
NCI-H460 lung
  GI50: 10.7 µM
  TGI: 25.3 µM
NCI-H522 lung
  GI50: 1.72 µM
  TGI: 4.32 µM
NCI/ADR-RES ovarian
  GI50: 2.97 µM
  TGI: 12.7 µM
OVCAR-3 ovarian
  GI50: 1.88 µM
  TGI: 3.64 µM
OVCAR-4 ovarian
  GI50: 4.53 µM
  TGI: 17.7 µM
OVCAR-5 ovarian
  GI50: 4.82 µM
  TGI: 17.6 µM
OVCAR-8 ovarian
  GI50: 3.14 µM
  TGI: 10.8 µM
PC-3 prostate
  GI50: 7.74 µM
  TGI: 21.5 µM
RPMI-8226 leukemia
  GI50: 2.49 µM
  TGI: 7.62 µM
RXF 393 renal
  GI50: 2.36 µM
  TGI: 4.74 µM
SF-268 CNS
  GI50: 11.3 µM
  TGI: 25.9 µM
SF-295 CNS
  GI50: 13.8 µM
  TGI: 27.2 µM
SF-539 CNS
  GI50: 2.35 µM
  TGI: 6.31 µM
SK-MEL-2 melanoma
  GI50: 10.6 µM
  TGI: 24.4 µM
SK-MEL-28 melanoma
  GI50: 3.95 µM
  TGI: 15.1 µM
SK-MEL-5 melanoma
  GI50: 4.79 µM
  TGI: 17.1 µM
SK-OV-3 ovarian
  GI50: 14.4 µM
  TGI: 27.8 µM
SN12C renal
  GI50: 1.87 µM
  TGI: 4.39 µM
SNB-19 CNS
  GI50: 4.36 µM
  TGI: 16.1 µM
SNB-75 CNS
  GI50: 2.83 µM
  TGI: 15.6 µM
SR leukemia
  GI50: 1.33 µM
  TGI: > 100 µM
SW-620 colon
  GI50: 1.85 µM
  TGI: 3.98 µM
T-47D breast
  GI50: 3.39 µM
  TGI: 20.8 µM
TK-10 renal
  GI50: 9.45 µM
  TGI: 21.2 µM
U251 CNS
  GI50: 1.86 µM
  TGI: 3.5 µM
UACC-257 melanoma
  GI50: 2.55 µM
  TGI: 5.61 µM
UACC-62 melanoma
  GI50: 1.76 µM
  TGI: 4.42 µM
UO-31 renal
  GI50: 4.07 µM
  TGI: 16.1 µM
